Legend:
[1] = molecular target: T1, porcine pancreatic lipase (Sus scrofa, UniProt P00591); assay: Lipase inhibitory activity assay (4-MUO substrate, fluorescence); format: biochemical; settings: for IC50: porcine pancreatic lipase, 4-MUO substrate, 25° C., 30 minutes, pH 8.0
T1 construct: purchased Sigma
T1 sequence (P00591 1-450): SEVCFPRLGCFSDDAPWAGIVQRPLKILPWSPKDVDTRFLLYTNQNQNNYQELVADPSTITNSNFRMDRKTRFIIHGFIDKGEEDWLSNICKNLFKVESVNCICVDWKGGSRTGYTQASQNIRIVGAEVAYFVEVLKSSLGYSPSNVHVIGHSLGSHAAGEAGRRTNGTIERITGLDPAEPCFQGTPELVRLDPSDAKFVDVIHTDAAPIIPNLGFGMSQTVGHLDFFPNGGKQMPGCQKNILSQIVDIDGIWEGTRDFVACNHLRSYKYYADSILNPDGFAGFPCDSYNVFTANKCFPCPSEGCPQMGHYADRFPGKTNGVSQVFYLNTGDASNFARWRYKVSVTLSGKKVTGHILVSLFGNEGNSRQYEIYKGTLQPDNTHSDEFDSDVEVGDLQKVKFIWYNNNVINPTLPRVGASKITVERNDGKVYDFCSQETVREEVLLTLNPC
Procedure: A lipase activity assay was performed by using the oleate ester of fluorescent 4-methylumbelliferone (4-MUO) as a substrate to measure the fluorescence of 4-methylumbelliferone produced by reaction.
The buffer used for the assay was 13 mM Tris-HCl (pH 8.0) containing 150 mM NaCl, 1.36 mM CaCl2. The enzyme assay was performed using a 0.1 M solution of the substrate 4-MUO (Sigma) in DMSO diluted 1:1000 in said buffer and a solution of porcine pancreatic lipase (Sigma) prepared at 400 U/ml also in said buffer.
An enzymatic reaction was started by adding 25 μl of the lipase/buffer solution after 50 μl of the 4-MUO/buffer solution and 25 μl of distilled water (or an aqueous solution of each sample) were added and mixed in a 96-well microplate at 25° C. After the reaction was performed for 30 minutes, the reaction was stopped by adding 100 μl of a 0.1 M citrate buffer (pH 4.2) and the fluorescence of 4-methylumbelliferone produced by the reaction (excitation 355 nm, emission 460 nm) was measured using a fluorescence plate reader (Fluoroskan Asent CF from Labsystems).
The inhibitory activity of each test sample was determined as IC50(μM), i.e. the amount of the sample giving 50% inhibition of the activity of the control (distilled water).

[2] = reported in the literature; cited from earlier work

**Q.** Which IC50 [1] does the source give for `O=C(O[C@@H]1Cc2c(O)cc(O)cc2O[C@H]1c1cc(O)c(O)c(O)c1)c1cc(O)c(O)c(O)c1` [(−)-gallocatechin 3-O-gallate (8), (−)-gallocatechin 3-O-gallate, reference compound] here?
**A.** 349 nM

**Q.** With `CCCCCCCCCCC[C@@H](C[C@@H]1OC(=O)[C@H]1CCCCCC)OC(=O)[C@H](CC(C)C)NC=O` [Xenical] as the compound, how does the adverse side effects [2] read?
**A.** fatty stools, increased stool frequency, loose stools, diarrhea and abdominal pain

**Q.** For `Oc1cc(O)c2c(c1)O[C@H](c1cc(O)c(O)c(O)c1)[C@@H](O)[C@@H]2c1c(O)cc(O)c2c1O[C@H](c1ccc(O)c(O)c1)[C@H](O)C2` [(+)-gallocatechin (4α − 8) (−)-epicatechin], which IC50 [1] is on record?
**A.** 2860 nM

**Q.** Which IC50 [1] does the source give for `O=C(O[C@@H]1[C@@H](c2c(O)cc(O)c3c2O[C@H](c2cc(O)c(O)c(O)c2)[C@H](OC(=O)c2cc(O)c(O)c(O)c2)C3)c2c(O)cc(O)cc2O[C@@H]1c1ccc(O)c(O)c1)c1cc(O)c(O)c(O)c1` [(−)-epicatechin 3-O-gallate (4β − 8) (−)-epigallocatechin 3-O-gallate] here?
**A.** 846 nM

**Q.** With `O=C(OC1Cc2c(O)cc(O)c(C3c4c(O)cc(O)cc4OC(c4cc(O)c(O)c(O)c4)C3O)c2OC1c1cc(O)c(O)c(O)c1)c1cc(O)c(O)c(O)c1` (stereo not drawn) [prodelphinidin B-2 3′-O-gallate (13), prodelphinidin B-2 3′-O-gallate] as the compound, how does the IC50 [1] read?
**A.** 1970 nM

**Q.** With `Oc1cc(O)c2c(c1)OC(c1ccc(O)c(O)c1)C(O)C2` (single isomer, unassigned; (+)) [(+)-catechin (5), (+)-catechin, reference compound] as the compound, how does the IC50 [1] read?
**A.** > 690000 nM

**Q.** With `O=C(O[C@@H]1Cc2c(O)cc(O)c([C@H]3c4c(O)cc(O)cc4O[C@H](c4ccc(O)c(O)c4)[C@@H]3O)c2O[C@@H]1c1cc(O)c(O)c(O)c1)c1cc(O)c(O)c(O)c1` [(−)-epicatechin (4β − 8) (−)-epigallocatechin 3-O-gallate] as the compound, how does the IC50 [1] read?
**A.** 147 nM

**Q.** For `OC1(c2ccc(Cl)cc2)c2ccccc2C2=NCCN21` (stereo not drawn) [Mazindol], which adverse side effects [2] is on record?
**A.** dry mouth, constipation, stomach discomfort and nausea/vomiting

**Q.** With `O=C(O[C@@H]1[C@@H](c2c(O)cc(O)c3c2O[C@H](c2cc(O)c(O)c(O)c2)[C@H](OC(=O)c2cc(O)c(O)c(O)c2)C3)c2c(O)cc(O)cc2O[C@@H]1c1cc(O)c(O)c(O)c1)c1cc(O)c(O)c(O)c1` [prodelphinidin B-2 3,3′-di-O-gallate] as the compound, how does the IC50 [1] read?
**A.** 107 nM

**Q.** For “(−)-epigallocatechin 3-O-gallate [(−)-epigallocatechin 3-O-gallate (4), reference compound]”, which “lipase inhibitory activity (in words)” value ([1]; method of Example 1) is on record?
**A.** strongest activity among the major catechins

**Q.** What about the IC50 [1] of the same compound?
**A.** 284 nM

**Q.** With `O=C(O[C@@H]1[C@@H](c2c(O)cc(O)c3c2O[C@H](c2ccc(O)c(O)c2)[C@H](OC(=O)c2cc(O)c(O)c(O)c2)C3)c2c(O)cc(O)cc2O[C@@H]1c1cc(O)c(O)c(O)c1)c1cc(O)c(O)c(O)c1` [(−)-epigallocatechin 3-O-gallate (4β − 8) (−)-epicatechin 3-O-gallate] as the compound, how does the IC50 [1] read?
**A.** 612 nM

**Q.** For `O=C(O[C@@H]1Cc2c(O)cc(O)c([C@@H]3c4c(O)cc(O)cc4O[C@H](c4cc(O)c(O)c(O)c4)[C@H]3O)c2O[C@@H]1c1cc(O)c(O)c(O)c1)c1cc(O)c(O)c(O)c1` [prodelphinidin B-4 3′-O-gallate (16), prodelphinidin B-4 3′-O-gallate], which IC50 [1] is on record?
**A.** 223 nM

**Q.** Which IC50 [1] does the source give for `Oc1cc(O)c2c(c1)O[C@H](c1cc(O)c(O)c(O)c1)[C@@H](O)[C@@H]2c1c(O)cc(O)c2c1O[C@H](c1cc(O)c(O)c(O)c1)[C@H](O)C2` [prodelphinidin B-4 (15), prodelphinidin B-4] here?
**A.** 6230 nM

**Q.** With `Oc1cc(O)c2c(c1)O[C@H](c1cc(O)c(O)c(O)c1)[C@H](O)[C@H]2c1c(O)cc(O)c2c1O[C@H](c1cc(O)c(O)c(O)c1)[C@H](O)C2` [prodelphinidin B-2 (12), prodelphinidin B-2] as the compound, how does the IC50 [1] read?
**A.** 2950 nM

**Q.** With `O=C(O[C@@H]1Cc2c(O)cc(O)c([C@@H]3c4c(O)cc(O)cc4O[C@H](c4ccc(O)c(O)c4)[C@H]3O)c2O[C@@H]1c1cc(O)c(O)c(O)c1)c1cc(O)c(O)c(O)c1` [(+)-catechin (α + 8) (−)-epigallocatechin 3-O-gallate] as the compound, how does the IC50 [1] read?
**A.** 174 nM

**Q.** For `O=C(O[C@@H]1Cc2c(O)cc3c(c2O[C@@H]1c1cc(O)c(O)c(O)c1)[C@H]1c2c(O)cc(O)cc2O[C@@](c2cc(O)c(O)c(O)c2)(O3)[C@@H]1O)c1cc(O)c(O)c(O)c1` [prodelphinidin A-2 3′-O-gallate (11), prodelphinidin A-2 3′-O-gallate], which IC50 [1] is on record?
**A.** 171 nM

**Q.** For `Oc1cc(O)c2c(c1)O[C@H](c1cc(O)c(O)c(O)c1)[C@H](O)C2` [(−)-epigallocatechin (3), (−)-epigallocatechin, reference compound], which IC50 [1] is on record?
**A.** > 20400 nM

**Q.** Which IC50 [1] does the source give for prodelphinidin B-5 3,3′-di-O-gallate here?
**A.** 558 nM

**Q.** Which IC50 [1] does the source give for `Oc1cc(O)c2c(c1)O[C@H](c1ccc(O)c(O)c1)[C@H](O)C2` [(−)-epicatechin (1), (−)-epicatechin, reference compound] here?
**A.** > 21600 nM

**Q.** Which IC50 [1] does the source give for `Oc1cc(O)c2c(c1)O[C@H](c1ccc(O)c(O)c1)[C@@H](O)[C@@H]2c1c(O)cc(O)c2c1O[C@H](c1cc(O)c(O)c(O)c1)[C@H](O)C2` [(+)-catechin (4α − 8) (−)-epigallocatechin] here?
**A.** 7910 nM

**Q.** For `Oc1cc(O)c2c(c1)O[C@H](c1ccc(O)c(O)c1)[C@@H](O)[C@@H]2c1c(O)cc(O)c2c1O[C@H](c1ccc(O)c(O)c1)[C@@H](O)C2` [procyanidin B-3 (10), procyanidin B-3], which IC50 [1] is on record?
**A.** 2940 nM

**Q.** For `O=C(O[C@@H]1Cc2c(O)cc(O)cc2O[C@H]1c1ccc(O)c(O)c1)c1cc(O)c(O)c(O)c1` [(−)-catechin 3-O-gallate (6), (−)-catechin 3-O-gallate, reference compound], which IC50 [1] is on record?
**A.** 846 nM

**Q.** Which IC50 [1] does the source give for “(−)-epicatechin 3-O-gallate [(−)-epicatechin 3-O-gallate (2), reference compound]” here?
**A.** 271 nM

**Q.** Which IC50 [1] does the source give for `Oc1cc(O)c2c(c1)O[C@H](c1ccc(O)c(O)c1)[C@H](O)[C@H]2c1c(O)cc(O)c2c1O[C@H](c1ccc(O)c(O)c1)[C@H](O)C2` [procyanidin B-2 (9), procyanidin B-2] here?
**A.** 7960 nM

**Q.** Which IC50 [1] does the source give for `O=C(O[C@@H]1Cc2c(O)cc(O)c([C@H]3c4c(O)cc(O)cc4O[C@H](c4cc(O)c(O)c(O)c4)[C@@H]3O)c2O[C@@H]1c1ccc(O)c(O)c1)c1cc(O)c(O)c(O)c1` [(−)-epigallocatechin (4β − 8) (−)-epicatechin 3-O-gallate] here?
**A.** 913 nM

**Q.** Which IC50 [1] does the source give for `Oc1cc(O)c2c(c1)O[C@H](c1cc(O)c(O)c(O)c1)[C@@H](O)C2` [(+)-gallocatechin (7), (+)-gallocatechin, reference compound] here?
**A.** > 163000 nM
